Data as given in US9624208B2, “Benzoxazolinone compounds with selective activity in voltage-gated sodium channels” (Merck Sharp & Dohme Corp., priority 2012, dated 2017).

Columns and labels:
human Nav1.7 = molecular target: T1, human Nav1.7 (Homo sapiens, UniProt Q15858); test: PatchXpress sodium current measurement, inactivated state block, Nav1.7; type: cell-based; conditions: channels stably expressed in HEK 293 cells, double-pulse protocol, 22° C., read-out: potency for the Nav 1.7 sodium ion channel (1.7=)
T1 construct: expressed in transfected cells
How it was run: (§1)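 HEK293 cells stably expressing channel; automated patch clamp at 22 °C, double-pulse protocol: hold 20 mV below V½ inactivation, 8000 ms prepulse 7 mV above V½, 2 ms step to −120 mV, 20 ms test pulse to −20 mV. CsF-based internal (pH 7.3), NMDG/40 mM NaCl external (pH 7.5). Rundown-corrected % inhibition (≥2 concentrations) fitted to Hill equation for IC50.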

human Nav1.5 = molecular target: T2, human Nav1.5 (Homo sapiens, UniProt Q14524); test: PatchXpress sodium current measurement, inactivated state block, Nav1.5; type: cell-based; conditions: determined by PatchXpress measurement, HEK 293 cells
T2 construct: expressed in transfected cells
How it was run: as §1

T1 sequence (Q15858 whole entry): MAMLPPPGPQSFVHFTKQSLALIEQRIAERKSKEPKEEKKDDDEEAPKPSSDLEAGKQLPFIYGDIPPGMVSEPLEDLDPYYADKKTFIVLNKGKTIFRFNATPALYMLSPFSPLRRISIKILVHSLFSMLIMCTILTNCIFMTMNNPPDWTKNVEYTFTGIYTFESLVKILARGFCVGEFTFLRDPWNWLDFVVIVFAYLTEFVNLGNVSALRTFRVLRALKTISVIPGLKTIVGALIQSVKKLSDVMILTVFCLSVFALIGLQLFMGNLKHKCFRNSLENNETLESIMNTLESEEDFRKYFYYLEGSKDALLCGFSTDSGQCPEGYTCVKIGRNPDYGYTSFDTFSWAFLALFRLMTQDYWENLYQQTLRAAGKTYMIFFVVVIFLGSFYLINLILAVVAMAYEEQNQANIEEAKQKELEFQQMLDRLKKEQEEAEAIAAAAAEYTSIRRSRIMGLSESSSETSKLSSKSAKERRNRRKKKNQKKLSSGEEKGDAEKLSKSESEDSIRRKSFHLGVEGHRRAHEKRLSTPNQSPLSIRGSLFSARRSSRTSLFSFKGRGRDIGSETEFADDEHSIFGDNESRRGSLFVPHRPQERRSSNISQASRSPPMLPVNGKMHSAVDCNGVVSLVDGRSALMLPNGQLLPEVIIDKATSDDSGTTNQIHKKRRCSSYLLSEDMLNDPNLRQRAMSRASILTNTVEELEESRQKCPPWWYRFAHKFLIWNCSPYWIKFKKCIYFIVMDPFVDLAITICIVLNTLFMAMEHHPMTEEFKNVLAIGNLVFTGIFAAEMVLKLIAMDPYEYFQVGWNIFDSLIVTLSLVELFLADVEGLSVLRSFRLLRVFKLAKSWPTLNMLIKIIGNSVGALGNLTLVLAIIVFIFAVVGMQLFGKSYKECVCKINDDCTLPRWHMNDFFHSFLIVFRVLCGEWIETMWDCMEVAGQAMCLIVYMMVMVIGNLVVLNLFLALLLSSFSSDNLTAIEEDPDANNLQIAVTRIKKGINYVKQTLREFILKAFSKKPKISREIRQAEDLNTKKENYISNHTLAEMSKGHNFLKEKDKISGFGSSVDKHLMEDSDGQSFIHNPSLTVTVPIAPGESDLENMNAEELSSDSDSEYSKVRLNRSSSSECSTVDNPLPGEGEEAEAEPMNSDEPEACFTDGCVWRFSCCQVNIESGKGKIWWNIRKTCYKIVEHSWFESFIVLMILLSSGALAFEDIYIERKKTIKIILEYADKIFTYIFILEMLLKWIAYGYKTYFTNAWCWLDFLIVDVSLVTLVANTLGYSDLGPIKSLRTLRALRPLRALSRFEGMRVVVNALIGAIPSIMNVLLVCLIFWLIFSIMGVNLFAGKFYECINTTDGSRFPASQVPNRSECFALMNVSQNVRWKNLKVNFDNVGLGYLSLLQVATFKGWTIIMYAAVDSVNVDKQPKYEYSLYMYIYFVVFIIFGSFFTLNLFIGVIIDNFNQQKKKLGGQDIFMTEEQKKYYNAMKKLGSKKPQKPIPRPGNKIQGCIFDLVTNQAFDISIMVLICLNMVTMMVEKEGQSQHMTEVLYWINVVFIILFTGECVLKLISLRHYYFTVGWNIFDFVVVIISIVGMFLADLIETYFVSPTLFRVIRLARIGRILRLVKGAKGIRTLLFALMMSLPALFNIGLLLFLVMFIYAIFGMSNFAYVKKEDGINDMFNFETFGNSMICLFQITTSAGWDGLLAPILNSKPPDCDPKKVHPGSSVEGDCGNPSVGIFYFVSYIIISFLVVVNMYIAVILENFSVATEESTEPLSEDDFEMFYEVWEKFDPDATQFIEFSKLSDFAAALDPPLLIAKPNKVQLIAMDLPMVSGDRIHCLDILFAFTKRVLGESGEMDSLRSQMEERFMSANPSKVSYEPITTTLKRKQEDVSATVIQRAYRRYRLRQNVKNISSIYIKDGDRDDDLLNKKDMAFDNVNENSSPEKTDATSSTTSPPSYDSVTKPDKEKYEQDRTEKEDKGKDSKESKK
T2 sequence (Q14524 whole entry): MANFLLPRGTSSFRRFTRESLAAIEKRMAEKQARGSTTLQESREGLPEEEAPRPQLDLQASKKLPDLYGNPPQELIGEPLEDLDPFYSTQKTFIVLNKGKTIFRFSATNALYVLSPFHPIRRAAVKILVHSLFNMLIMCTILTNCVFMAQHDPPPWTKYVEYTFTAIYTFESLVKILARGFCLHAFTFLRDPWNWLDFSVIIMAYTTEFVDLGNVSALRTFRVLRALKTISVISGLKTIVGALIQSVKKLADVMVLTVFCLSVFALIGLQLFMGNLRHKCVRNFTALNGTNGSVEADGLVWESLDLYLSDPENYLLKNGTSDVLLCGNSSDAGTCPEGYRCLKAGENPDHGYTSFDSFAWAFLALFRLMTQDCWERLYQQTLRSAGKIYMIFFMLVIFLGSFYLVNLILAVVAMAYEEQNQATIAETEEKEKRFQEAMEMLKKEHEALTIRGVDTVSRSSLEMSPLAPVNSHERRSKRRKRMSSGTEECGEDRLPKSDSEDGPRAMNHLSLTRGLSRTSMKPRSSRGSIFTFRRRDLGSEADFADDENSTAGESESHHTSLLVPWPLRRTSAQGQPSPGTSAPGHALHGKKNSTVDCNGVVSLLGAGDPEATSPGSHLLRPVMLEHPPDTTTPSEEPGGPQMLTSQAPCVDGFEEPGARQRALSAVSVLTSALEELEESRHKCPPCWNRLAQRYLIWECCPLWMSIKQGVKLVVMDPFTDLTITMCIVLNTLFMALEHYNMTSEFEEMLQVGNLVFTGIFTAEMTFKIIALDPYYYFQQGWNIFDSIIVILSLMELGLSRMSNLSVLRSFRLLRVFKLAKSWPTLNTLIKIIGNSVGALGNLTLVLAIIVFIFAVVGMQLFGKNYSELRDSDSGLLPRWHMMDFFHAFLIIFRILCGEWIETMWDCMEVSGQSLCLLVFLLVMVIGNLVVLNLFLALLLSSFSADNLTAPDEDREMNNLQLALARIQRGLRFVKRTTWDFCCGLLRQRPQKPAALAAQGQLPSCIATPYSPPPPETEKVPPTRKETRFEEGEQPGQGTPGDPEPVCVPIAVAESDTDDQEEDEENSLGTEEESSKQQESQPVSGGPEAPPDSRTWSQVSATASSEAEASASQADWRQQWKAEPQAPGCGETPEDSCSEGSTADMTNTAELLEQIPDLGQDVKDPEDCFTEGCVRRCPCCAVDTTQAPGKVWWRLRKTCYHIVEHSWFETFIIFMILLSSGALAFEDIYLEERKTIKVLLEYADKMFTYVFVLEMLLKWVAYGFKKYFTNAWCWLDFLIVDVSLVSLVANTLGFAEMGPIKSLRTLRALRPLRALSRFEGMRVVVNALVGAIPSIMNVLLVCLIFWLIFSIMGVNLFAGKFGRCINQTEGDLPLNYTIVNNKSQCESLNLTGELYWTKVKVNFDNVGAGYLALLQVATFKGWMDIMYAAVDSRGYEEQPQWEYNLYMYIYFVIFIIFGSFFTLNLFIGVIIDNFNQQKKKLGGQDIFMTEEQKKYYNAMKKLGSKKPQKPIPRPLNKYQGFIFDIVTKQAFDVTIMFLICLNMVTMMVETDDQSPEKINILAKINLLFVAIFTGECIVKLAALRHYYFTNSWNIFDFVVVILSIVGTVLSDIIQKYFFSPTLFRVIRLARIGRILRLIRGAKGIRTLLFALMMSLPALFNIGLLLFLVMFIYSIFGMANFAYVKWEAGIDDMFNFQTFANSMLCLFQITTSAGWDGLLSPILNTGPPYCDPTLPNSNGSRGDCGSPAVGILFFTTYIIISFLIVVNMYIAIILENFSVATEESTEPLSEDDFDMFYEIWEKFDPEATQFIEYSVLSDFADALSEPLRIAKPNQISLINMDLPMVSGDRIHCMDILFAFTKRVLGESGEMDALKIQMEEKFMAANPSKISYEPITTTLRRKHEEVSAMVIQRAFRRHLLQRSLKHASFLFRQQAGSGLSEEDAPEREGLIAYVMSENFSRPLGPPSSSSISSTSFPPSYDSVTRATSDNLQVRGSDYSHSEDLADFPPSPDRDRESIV

IC50 (human Nav1.7) | Compound | ratio of Nav 1.5:Nav 1.7 potency (human Nav1.5)
0.04 µM | NC1CCc2cccc(Cn3c(=O)oc4cc(S(=O)(=O)Nc5cccc(F)n5)c(F)cc43)c2C1 (single isomer, unassigned) [Ex13-5, (R or S)-3-[(7-amino-5,6,7,8-tetrahydronaphthalen-1-yl)methyl]-5-fluoro-N-(6-fluoropyridin-2-yl)-2-oxo-2,3-dihydro-1,3-benzoxazole-6-sulfonamide] | 914
0.145 µM | C[C@H](c1ccccc1C1CNC1)n1c(=O)oc2cc(S(=O)(=O)Nc3ccc(F)cn3)c(F)cc21 [Ex15-6, 3-[(1R)-1-(2-azetidin-3-ylphenyl)ethyl]-5-fluoro-N-(5-fluoropyridin-2-yl)-2-oxo-2,3-dihydro-1,3-benzoxazole-6-sulfonamide] | 207
0.065 µM | C[C@H](c1cccc(C2=CCCNC2)c1)n1c(=O)oc2cc(S(=O)(=O)Nc3cccc(F)n3)c(F)cc21 [Ex7-11, 5-fluoro-N-(6-fluoropyridin-2-yl)-2-oxo-3-{(1R)-1-[3-(1,2,5,6-tetrahydropyridin-3-yl)phenyl]ethyl}-2,3-dihydro-1,3-benzoxazole-6-sulfonamide] | 461
0.014 µM | Cc1cc2c(cc1S(=O)(=O)Nc1cccc(F)n1)oc(=O)n2[C@H](C)c1cccc(C)c1CN [Ex19-2, 3-{(1R)-1-[2-(aminomethyl)-3-methylphenyl]ethyl}-N-(6-fluoropyridin-2-yl)-5-methyl-2-oxo-2,3-dihydro-1,3-benzoxazole-6-sulfonamide] | 133
0.074 µM | Cc1cc2c(cc1S(=O)(=O)Nc1cccc(F)n1)oc(=O)n2[C@H](C)c1ccccc1N1CCNCC1 [Ex23-2, N-(6-fluoropyridin-2-yl)-5-methyl-2-oxo-3-{(1R)-1-[2-(piperazin-1-yl)phenyl]ethyl}-2,3-dihydro-1,3-benzoxazole-6-sulfonamide] | 405
0.136 µM | Cc1c(C#CCN)cccc1[C@@H](C)n1c(=O)oc2cc(S(=O)(=O)Nc3cccc(F)n3)c(F)cc21 [Ex21-22, 3-{(1R)-1-[3-(3-aminoprop-1-yn-1-yl)-2-methylphenyl]ethyl}-5-fluoro-N-(6-fluoropyridin-2-yl)-2-oxo-2,3-dihydro-1,3-benzoxazole-6-sulfonamide] | 220
0.727 µM | O=c1oc2cc(S(=O)(=O)Nc3cccc(F)n3)c(F)cc2n1Cc1cccc2c1CNCC2F (single isomer, unassigned; enantiomer 2) [Ex5-11, (S or R)-5-fluoro-N-(6-fluoropyridin-2-yl)-3-[(4-fluoro-1,2,3,4-tetrahydroisoquinolin-8-yl)methyl]-2-oxo-2,3-dihydro-1,3-benzoxazole-6-sulfonamide (enantiomer 2)] | 54
0.243 µM | C[C@H](c1cccc(C2CCCN2)c1)n1c(=O)oc2cc(S(=O)(=O)Nc3cccc(F)n3)c(F)cc21 (stereo partly drawn) [Ex20-3, 5-fluoro-N-(6-fluoropyridin-2-yl)-2-oxo-3-{(1R)-1-[3-(pyrrolidin-2-yl)phenyl]ethyl}-2,3-dihydro-1,3-benzoxazole-6-sulfonamide] | 218
0.101 µM | Cc1c(CCCN)cccc1[C@@H](C)n1c(=O)oc2cc(S(=O)(=O)Nc3cccc(F)n3)c(F)cc21 [Ex22-3, 3-{(1R)-1-[3-(3-amino-propyl)-2-methylphenyl]ethyl}-5-fluoro-N-(6-fluoropyridin-2-yl)-2-oxo-2,3-dihydro-1,3-benzoxazole-6-sulfonamide] | 297
0.236 µM | C[C@H](c1ccccc1C#CCN1CCC1)n1c(=O)oc2cc(S(=O)(=O)Nc3cccc(F)n3)c(F)cc21 [Ex8-10, 3-{(1R)-1-[2-(3-azetidin-1-ylprop-1-yn-1-yl)phenyl]ethyl}-5-fluoro-N-(6-fluoropyridin-2-yl)-2-oxo-2,3-dihydro-1,3-benzoxazole-6-sulfonamide] | 127
0.032 µM | Cc1cccc([C@@H](C)n2c(=O)oc3cc(S(=O)(=O)Nc4cccc(F)n4)c(F)cc32)c1C#C[C@@H]1CCCC[C@@H]1N [Ex21-27, 3-[(1R)-1-(2-{[(1S,2S)-2-aminocyclohexyl]-ethynyl}-3-methylphenyl)ethyl]-5-fluoro-N-(6-fluoropyridin-2-yl)-2-oxo-2,3-dihydro-1,3-benzoxazole-6-sulfonamide] | 476
0.108 µM | C[C@H](c1ccccc1C#CCC(C)(C)N)n1c(=O)oc2cc(S(=O)(=O)Nc3cccc(F)n3)c(F)cc21 [Ex8-7, 3-{(1R)-1-[2-(4-amino-4-methylpent-1-yn-1-yl)phenyl]ethyl}-5-fluoro-N-(6-fluoropyridin-2-yl)-2-oxo-2,3-dihydro-1,3-benzoxazole-6-sulfonamide] | > 131
0.124 µM | C[C@H](c1ccccc1CN(C)C)n1c(=O)oc2cc(S(=O)(=O)Nc3cccc(F)n3)c(F)cc21 [Ex9-2, 3-[(1R)-1-{2-[(dimethylamino)methyl]phenyl}ethyl]-5-fluoro-N-(6-fluoropyridin-2-yl)-2-oxo-2,3-dihydro-1,3-benzoxazole-6-sulfonamide] | 84
0.024 µM | C[C@H](c1ccccc1CN)n1c(=O)oc2cc(S(=O)(=O)Nc3cccc(F)n3)c(F)cc21 [Ex9-1, (R)-3-(1-(2-(aminomethyl)phenyl)ethyl)-5-fluoro-N-(6-fluoropyridin-2-yl)-2-oxo-2,3-dihydrobenzo[d]oxazole-6-sulfonamide] | 1525
0.034 µM | Cc1cc2c(cc1S(=O)(=O)Nc1cccc(F)n1)oc(=O)n2[C@H](C)c1cccc2c1CNCC2 [Ex17-4, (R)—N-(6-Fluoropyridin-2-yl)-5-methyl-2-oxo-3-(1-(1,2,3,4-tetrahydroisoquinolin-8-yl)ethyl)-2,3-dihydrobenzo[d]oxazole-6-sulfonamide] | 200
0.434 µM | C[C@H](c1ccccc1C#CCN1CCCC1)n1c(=O)oc2cc(S(=O)(=O)Nc3cccc(F)n3)c(F)cc21 [Ex8-2, 5-fluoro-N-(6-fluoropyridin-2-yl)-2-oxo-3-{(1R)-1-[2-(3-pyrrolidin-1-ylprop-1-yn-1-yl)phenyl]ethyl}-2,3-dihydro-1,3-benzoxazole-6-sulfonamide] | 23
0.089 µM | Cl.NC1CCc2cccc(Cn3c(=O)oc4cc(S(=O)(=O)Nc5cccc(F)n5)c(F)cc43)c2C1 (single isomer, unassigned) [Ex13-4, (S or R)-3-((7-Amino-5,6,7,8-tetrahydronaphthalen-1-yl)methyl)-5-fluoro-N-(6-fluoropyridin-2-yl)-2-oxo-2,3-dihydrobenzo[d]oxazole-6-sulfonamide hydrochloride] | 304
0.189 µM | C[C@H](c1cccc(C#CCN2CCNCC2)c1)n1c(=O)oc2cc(S(=O)(=O)Nc3cccc(F)n3)c(F)cc21 [Ex21-11, 5-fluoro-N-(6-fluoropyridin-2-yl)-2-oxo-3-[(1R)-1-{3-[3-(piperazin-1-yl)prop-1-yn-1-yl]phenyl}ethyl]-2,3-dihydro-1,3-benzoxazole-6-sulfonamide] | 137
